Converted amounts (≈) assume the structure as drawn.
Experiments:
Assay type in all cases: functional
[1] = system: Streptococcus pyogenes; experiment: Antibacterial activity against erythromycin-resistant Streptococcus pyogenes 2 clinical isolate assessed as bacterial growth inhibition incubated for 20 hrs by CLSI based broth microdilution method
[2] = system: Staphylococcus epidermidis; experiment: Antibacterial activity against penicillin-resistant Staphylococcus epidermidis clinical isolate assessed as bacterial growth inhibition incubated for 20 hrs by CLSI based broth microdilution method
[3] = system: Staphylococcus aureus; experiment: Antibacterial activity against Staphylococcus aureus clinical isolate assessed as bacterial growth inhibition incubated for 20 hrs by CLSI based broth microdilution method
[4] = system: Staphylococcus aureus; experiment: Antibacterial activity against penicillin-resistant Staphylococcus aureus ATCC31007 assessed as bacterial growth inhibition incubated for 20 hrs by CLSI based broth microdilution method
[5] = system: Staphylococcus aureus; experiment: Antibacterial activity against methicillin-resistant Staphylococcus aureus ATCC43300 assessed as bacterial growth inhibition incubated for 20 hrs by CLSI based broth microdilution method
[6] = system: Klebsiella pneumoniae; experiment: Antibacterial activity against Klebsiella pneumoniae ATCC BAA-1902 assessed as bacterial growth inhibition incubated for 20 hrs by CLSI based broth microdilution method
[7] = system: Acinetobacter baumannii; experiment: Antibacterial activity against Acinetobacter baumannii ATCC19606 assessed as bacterial growth inhibition incubated for 20 hrs by CLSI based broth microdilution method
[8] = system: Escherichia coli; experiment: Antibacterial activity against wild-type Escherichia coli BW25113 assessed as bacterial growth inhibition incubated for 20 hrs by CLSI based broth microdilution method
[9] = system: Escherichia coli; experiment: Antibacterial activity against penicillin-susceptible Escherichia coli ATCC25922 assessed as bacterial growth inhibition incubated for 20 hrs by CLSI based broth microdilution method
[10] = system: Enterococcus faecium; experiment: Antibacterial activity against vancomycin-susceptible Enterococcus faecium ATCC19434 assessed as bacterial growth inhibition incubated for 20 hrs by CLSI based broth microdilution method
[11] = system: Enterococcus faecalis; experiment: Antibacterial activity against vancomycin-susceptible Enterococcus faecalis ATCC29212 assessed as bacterial growth inhibition incubated for 20 hrs by CLSI based broth microdilution method
[12] = system: Streptococcus pyogenes; experiment: Antibacterial activity against erythromycin-susceptible Streptococcus pyogenes 1 assessed as bacterial growth inhibition incubated for 20 hrs by CLSI based broth microdilution method
[13] = system: Staphylococcus aureus; experiment: Antibacterial activity against erythromycin-susceptible Staphylococcus aureus ATCC25923 assessed as bacterial growth inhibition incubated for 20 hrs by CLSI based broth microdilution method
[14] = system: Bacillus pumilus; experiment: Antibacterial activity against penicillin-susceptible Bacillus pumilus CMCC63202 assessed as bacterial growth inhibition incubated for 20 hrs by CLSI based broth microdilution method
[15] = system: Bacillus subtilis; experiment: Antibacterial activity against penicillin-susceptible Bacillus subtilis ATCC9372 assessed as bacterial growth inhibition incubated for 20 hrs by CLSI based broth microdilution method
[16] = system: Enterococcus faecalis; experiment: Antibacterial activity against vancomycin-resistant Enterococcus faecalis ATCC51299 assessed as bacterial growth inhibition incubated for 20 hrs by CLSI based broth microdilution method
[17] = system: Enterococcus faecium; experiment: Antibacterial activity against vancomycin-resistant Enterococcus faecium ATCC51559 assessed as bacterial growth inhibition incubated for 20 hrs by CLSI based broth microdilution method

SMILES: COc1cc(/C=C/c2cc(-c3ccccc3)c[n+](C)c2-c2ccccc2)cc(OC)c1OC.[I-]
- MIC [1]: 16 µg/mL
- MIC [2]: > 64 µg/mL
- MIC [3]: 16 µg/mL
- MIC [4]: > 64 µg/mL
- MIC [5]: 64 µg/mL
- MIC [6]: > 64 µg/mL
- MIC [7]: > 64 µg/mL
- MIC [8]: > 64 µg/mL
- MIC [9]: > 64 µg/mL
- MIC [10]: > 64 µg/mL
- MIC [11]: > 64 µg/mL
- MIC [12]: 16 µg/mL
- MIC [13]: > 64 µg/mL
- MIC [14]: 64 µg/mL
- MIC [15]: 16 µg/mL
- MIC [16]: > 64 µg/mL
- MIC [17]: > 64 µg/mL

SMILES: CCCCOc1ccc(/C=C/c2cc(-c3ccccc3)c[n+](C)c2-c2ccccc2)cc1.[I-]
- MIC [1]: 2 µg/mL
- MIC [2]: 2 µg/mL
- MIC [3]: 1 µg/mL
- MIC [4]: 16 µg/mL
- MIC [5]: 1 µg/mL
- MIC [6]: 16 µg/mL
- MIC [7]: 4 µg/mL
- MIC [8]: 8 µg/mL
- MIC [9]: 8 µg/mL
- MIC [10]: 2 µg/mL
- MIC [11]: 4 µg/mL
- MIC [12]: 2 µg/mL
- MIC [13]: 0.5 µg/mL
- MIC [14]: 1 µg/mL
- MIC [15]: 1 µg/mL
- MIC [16]: 4 µg/mL
- MIC [17]: 4 µg/mL

SMILES: C[n+]1cc(-c2ccccc2)c(/C=C/c2ccc(N3CCCCC3)cc2)cc1-c1ccc(C(C)(C)C)cc1.[I-]
- MIC [1]: 2 µg/mL
- MIC [2]: 1 µg/mL
- MIC [3]: 0.5 µg/mL
- MIC [4]: 0.25 µg/mL
- MIC [5]: 1 µg/mL
- MIC [6]: 8 µg/mL
- MIC [7]: 1 µg/mL
- MIC [8]: 4 µg/mL
- MIC [9]: 64 µg/mL
- MIC [10]: 1 µg/mL
- MIC [11]: 1 µg/mL
- MIC [12]: 0.5 µg/mL
- MIC [13]: 0.25 µg/mL
- MIC [14]: 0.125 µg/mL
- MIC [15]: 0.5 µg/mL
- MIC [16]: 2 µg/mL
- MIC [17]: 1 µg/mL

SMILES: CCCCCCCOc1ccc(/C=C/c2cc(-c3ccccc3)c[n+](C)c2-c2ccccc2)cc1.[I-]
- MIC [1]: 8 µg/mL
- MIC [2]: 64 µg/mL
- MIC [3]: 8 µg/mL
- MIC [4]: 64 µg/mL
- MIC [5]: 8 µg/mL
- MIC [6]: 8 µg/mL
- MIC [7]: 2 µg/mL
- MIC [8]: 8 µg/mL
- MIC [9]: 8 µg/mL
- MIC [10]: 2 µg/mL
- MIC [11]: 4 µg/mL
- MIC [12]: 4 µg/mL
- MIC [13]: 0.25 µg/mL
- MIC [14]: 1 µg/mL
- MIC [15]: 1 µg/mL
- MIC [16]: > 64 µg/mL
- MIC [17]: 64 µg/mL

SMILES: C[n+]1cc(-c2ccccc2)c(/C=C/c2ccc(N3CCCCC3)cc2)cc1-c1ccc2ccccc2c1.[I-]
- MIC [1]: 2 µg/mL
- MIC [2]: 2 µg/mL
- MIC [3]: 0.5 µg/mL
- MIC [4]: 2 µg/mL
- MIC [5]: 1 µg/mL
- MIC [6]: 16 µg/mL
- MIC [7]: 2 µg/mL
- MIC [8]: 4 µg/mL
- MIC [9]: 64 µg/mL
- MIC [10]: 1 µg/mL
- MIC [11]: 1 µg/mL
- MIC [12]: 2 µg/mL
- MIC [13]: 0.5 µg/mL
- MIC [14]: 0.5 µg/mL
- MIC [15]: 1 µg/mL
- MIC [16]: 2 µg/mL
- MIC [17]: 2 µg/mL

SMILES: C[n+]1cc(-c2ccccc2)c(/C=C/c2ccc(N)cc2)cc1-c1ccc(C(C)(C)C)cc1.[I-]
- MIC [1]: 2 µg/mL
- MIC [2]: 4 µg/mL
- MIC [3]: 0.25 µg/mL
- MIC [4]: 2 µg/mL
- MIC [5]: 0.5 µg/mL
- MIC [6]: 16 µg/mL
- MIC [7]: 4 µg/mL
- MIC [8]: 32 µg/mL
- MIC [9]: 16 µg/mL
- MIC [10]: 4 µg/mL
- MIC [11]: 4 µg/mL
- MIC [12]: 4 µg/mL
- MIC [13]: 0.125 µg/mL
- MIC [14]: 2 µg/mL
- MIC [15]: 0.5 µg/mL
- MIC [16]: 4 µg/mL
- MIC [17]: 4 µg/mL

SMILES: C[n+]1cc(-c2ccccc2)c(/C=C/c2ccc(F)cc2)cc1-c1ccc(C(C)(C)C)cc1.[I-]
- MIC [1]: 4 µg/mL
- MIC [2]: 2 µg/mL
- MIC [3]: 1 µg/mL
- MIC [4]: 1 µg/mL
- MIC [5]: 1 µg/mL
- MIC [6]: 8 µg/mL
- MIC [7]: 4 µg/mL
- MIC [8]: 8 µg/mL
- MIC [9]: 8 µg/mL
- MIC [10]: 2 µg/mL
- MIC [11]: 2 µg/mL
- MIC [12]: 2 µg/mL
- MIC [13]: 1 µg/mL
- MIC [14]: 1 µg/mL
- MIC [15]: 1 µg/mL
- MIC [16]: 2 µg/mL
- MIC [17]: 2 µg/mL

SMILES: CCCCCCOc1ccc(/C=C/c2cc(-c3ccccc3)c[n+](C)c2-c2ccccc2)cc1.[I-]
- MIC [1]: 2 µg/mL
- MIC [2]: 2 µg/mL
- MIC [3]: 1 µg/mL
- MIC [4]: 2 µg/mL
- MIC [5]: 1 µg/mL
- MIC [6]: > 64 µg/mL
- MIC [7]: 2 µg/mL
- MIC [8]: 4 µg/mL
- MIC [9]: 8 µg/mL
- MIC [10]: 2 µg/mL
- MIC [11]: 2 µg/mL
- MIC [12]: 2 µg/mL
- MIC [13]: 0.25 µg/mL
- MIC [14]: 0.5 µg/mL
- MIC [15]: 2 µg/mL
- MIC [16]: 1 µg/mL
- MIC [17]: 2 µg/mL

SMILES: C[n+]1cc(-c2ccccc2)c(/C=C/c2ccc(O)cc2)cc1-c1ccc(C(C)(C)C)cc1.[I-]
- MIC [1]: 2 µg/mL
- MIC [2]: 4 µg/mL
- MIC [3]: 0.5 µg/mL
- MIC [4]: 4 µg/mL
- MIC [5]: 1 µg/mL
- MIC [6]: > 64 µg/mL
- MIC [7]: 8 µg/mL
- MIC [8]: 64 µg/mL
- MIC [9]: 64 µg/mL
- MIC [10]: 4 µg/mL
- MIC [11]: 4 µg/mL
- MIC [12]: 2 µg/mL
- MIC [13]: 0.125 µg/mL
- MIC [14]: 4 µg/mL
- MIC [15]: 1 µg/mL
- MIC [16]: 4 µg/mL
- MIC [17]: 4 µg/mL

SMILES: Cc1ccc(/C=C/c2cc(-c3ccccc3)c[n+](C)c2-c2ccccc2)cc1.[I-]
- MIC [1]: 4 µg/mL
- MIC [2]: 32 µg/mL
- MIC [3]: 2 µg/mL
- MIC [4]: 32 µg/mL
- MIC [5]: 4 µg/mL
- MIC [6]: > 64 µg/mL
- MIC [7]: 32 µg/mL
- MIC [8]: > 64 µg/mL
- MIC [9]: > 64 µg/mL
- MIC [10]: 32 µg/mL
- MIC [11]: 16 µg/mL
- MIC [12]: 4 µg/mL
- MIC [13]: 1 µg/mL
- MIC [14]: 16 µg/mL
- MIC [15]: 2 µg/mL
- MIC [16]: 32 µg/mL
- MIC [17]: 16 µg/mL

SMILES: C=CC1=C(C(=O)O)N2C(=O)[C@@H](NC(=O)/C(=N\OCC(=O)O)c3csc(N)n3)[C@H]2SC1 [CEFIXIME]
- MIC [1]: < 0.062 µg/mL
- MIC [2]: > 64 µg/mL
- MIC [3]: 8 µg/mL (≈ 17.6 µM)
- MIC [4]: > 64 µg/mL
- MIC [5]: 4 µg/mL (≈ 8.82 µM)
- MIC [6]: > 64 µg/mL
- MIC [7]: 32 µg/mL (≈ 70.6 µM)
- MIC [8]: < 0.062 µg/mL
- MIC [9]: < 0.062 µg/mL
- MIC [10]: > 64 µg/mL
- MIC [11]: > 64 µg/mL
- MIC [12]: < 0.062 µg/mL
- MIC [13]: 1 µg/mL (≈ 2.21 µM)
- MIC [14]: > 64 µg/mL
- MIC [15]: 2 µg/mL (≈ 4.41 µM)
- MIC [16]: > 64 µg/mL
- MIC [17]: > 64 µg/mL
